Experiments:
[1] = target: T1, human beta-cardiac myosin subfragment 1 (M2β-S1) (Homo sapiens, UniProt P12883); test: stopped-flow mant fluorescence, release from acto-M2β-S1 on mixing with ATP (rate constant without pN-Bleb); assay type: binding; parameters: gene MYH7; subfragment 1, amino acids 1–843, N-terminal FLAG tag, C-terminal Avi tag; with actin; settings: read-out: stopped-flow mant fluorescence, release from acto-M2β-S1 on mixing with ATP (rat)
[2] = target: T1, human beta-cardiac myosin subfragment 1 (M2β-S1); test: actin-activated ATPase (NADH-linked assay); also in vitro motility (IC50 […]); assay type: biochemical; parameters: gene MYH7; subfragment 1, amino acids 1–843, N-terminal FLAG tag, C-terminal Avi tag
[3] = target: T2, skeletal muscle heavy meromyosin (Sk HMM); test: as above; assay type: biochemical
T2 construct: heavy meromyosin, prepared from rabbit psoas muscle (Results text says chicken)

T1 sequence (P12883 1-843): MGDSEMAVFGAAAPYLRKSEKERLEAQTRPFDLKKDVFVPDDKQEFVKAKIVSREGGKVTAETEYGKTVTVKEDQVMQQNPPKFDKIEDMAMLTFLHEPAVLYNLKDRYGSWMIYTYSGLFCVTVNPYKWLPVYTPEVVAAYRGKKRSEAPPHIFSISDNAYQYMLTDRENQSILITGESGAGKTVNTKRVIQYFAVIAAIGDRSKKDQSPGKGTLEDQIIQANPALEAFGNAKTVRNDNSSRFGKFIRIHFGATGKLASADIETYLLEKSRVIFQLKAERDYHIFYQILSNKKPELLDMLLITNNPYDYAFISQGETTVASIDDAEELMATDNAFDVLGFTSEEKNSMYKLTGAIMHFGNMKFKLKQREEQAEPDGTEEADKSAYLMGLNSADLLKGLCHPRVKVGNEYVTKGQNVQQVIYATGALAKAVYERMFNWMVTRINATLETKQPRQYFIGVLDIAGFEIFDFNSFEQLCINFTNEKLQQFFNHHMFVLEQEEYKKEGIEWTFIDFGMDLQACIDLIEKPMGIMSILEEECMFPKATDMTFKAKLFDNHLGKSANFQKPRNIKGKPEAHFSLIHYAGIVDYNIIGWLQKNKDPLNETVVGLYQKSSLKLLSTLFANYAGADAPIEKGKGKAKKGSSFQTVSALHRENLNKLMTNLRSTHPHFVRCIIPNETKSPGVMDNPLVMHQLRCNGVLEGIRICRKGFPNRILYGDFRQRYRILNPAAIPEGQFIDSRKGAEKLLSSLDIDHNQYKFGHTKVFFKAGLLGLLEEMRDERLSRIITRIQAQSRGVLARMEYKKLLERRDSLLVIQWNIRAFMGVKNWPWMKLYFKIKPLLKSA

Row | koff [1] [s⁻¹] | IC50 [2] [µM] | IC50 [3] [µM] | SMILES
1 | 229 ± 6.5 |  |  | CNc1ccccc1C(=O)O[C@H]1C[C@H](n2cnc3c(N)ncnc32)O[C@@H]1COP(=O)(O)OP(=O)(O)O
2 |  | 12.3 ± 1.8 | 0.43 ± 0.11 | Cc1ccc2c(c1)C(=O)[C@]1(O)CCN(c3ccc([N+](=O)[O-])cc3)C1=N2 [pN-Bleb, para-Nitroblebbistatin]

Reference: PMC5220080, “Modulating Beta-Cardiac Myosin Function at the Molecular and Tissue Levels” (Frontiers in Physiology, 2017)
